The results in this text go back to patent US8044066B2, “Derivatives of pyrrolopyridine-2-carboxamides, preparation thereof and therapeutic application thereof” (Sanofi-Aventis, priority 2007, dated 2011).

The target in one series is T1, TRPV1 receptor (Rattus norvegicus, UniProt O35433).
T1 construct: The neurons of the DRG naturally express the TRPV1 receptor; endogenous in cells; host or cells: primary culture of newborn rat dorsal root ganglion (DRG) neurons
Put plainly: Inhibition of the current induced with capsaicin on rat DRGs (whole-cell patch-clamp). The note with it: DRG neuron; compound at 10 nM; capsaicin 1 μM; newborn rat DRG neurons. Type of series: cell-based. The protocol: Test of Inhibition of the Current Induced with Capsaicin on Rat DRGs
Primary Culture of Rat Dorsal Root Ganglion (DRG) Cells:
The neurons of the DRG naturally express the TRPV1 receptor.
The primary cultures of newborn rat DRGs are prepared using 1-day-old rats. Briefly, after dissection, the ganglions are trypsinized and the cells dissociated by mechanical trituration. The cells are resuspended in an Eagle basal culture medium containing 10% fetal calf serum, 25 mM KCl, 2 mM glutamine, 100 μg/ml gentamicin and 50 ng/ml of NGF, and then deposited on glass slides coated with laminin (0.25×10^6 cells per slide), which are then placed in Corning 12-well dishes. The cells are incubated at 37° C. in a humidified atmosphere containing 5% CO2 and 95% air. […]
The measuring chambers (volume 800 μl) containing the cell preparation are placed on the platform of an inverted microscope (Olympus IMT2) equipped with Hoffman optics (Modulation Contrast, New York) and observed at a magnification of 400×. […] The overall currents (membrane potential set at −60 mV) are recorded with an Axopatch 1D amplifier (Axon Instruments, Foster city, Calif.), connected to a PC running the Pclamp8 software (Axon Instrument). The current plots are recorded on paper and simultaneously digitized (sampling frequency 15 to 25 Hz) and acquired on the hard drive of the PC. […]

T1 sequence (O35433 whole entry): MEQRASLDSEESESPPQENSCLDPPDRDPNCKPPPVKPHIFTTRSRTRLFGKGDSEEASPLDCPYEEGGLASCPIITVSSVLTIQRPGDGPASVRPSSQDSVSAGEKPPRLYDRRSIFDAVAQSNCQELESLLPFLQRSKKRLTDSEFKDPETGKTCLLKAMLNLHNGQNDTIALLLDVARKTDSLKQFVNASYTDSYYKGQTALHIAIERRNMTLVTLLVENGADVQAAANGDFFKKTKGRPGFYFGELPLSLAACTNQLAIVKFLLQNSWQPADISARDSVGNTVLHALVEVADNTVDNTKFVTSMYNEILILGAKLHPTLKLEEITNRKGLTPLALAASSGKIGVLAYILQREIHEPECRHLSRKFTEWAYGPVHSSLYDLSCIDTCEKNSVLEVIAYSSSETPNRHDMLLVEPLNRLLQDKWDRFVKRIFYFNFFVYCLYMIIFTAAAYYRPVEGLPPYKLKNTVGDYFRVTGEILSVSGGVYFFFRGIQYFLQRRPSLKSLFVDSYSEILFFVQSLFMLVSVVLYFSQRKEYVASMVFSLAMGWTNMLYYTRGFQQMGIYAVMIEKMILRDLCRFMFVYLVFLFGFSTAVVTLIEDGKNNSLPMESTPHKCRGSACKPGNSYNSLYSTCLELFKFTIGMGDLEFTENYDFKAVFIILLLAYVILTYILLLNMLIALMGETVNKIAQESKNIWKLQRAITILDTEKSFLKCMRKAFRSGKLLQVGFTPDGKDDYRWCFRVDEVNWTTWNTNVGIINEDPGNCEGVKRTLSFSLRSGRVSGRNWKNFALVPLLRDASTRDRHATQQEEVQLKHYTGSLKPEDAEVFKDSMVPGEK

Regarding `Cc1nc2cc(NC(=O)c3cc4cccnc4n3-c3ccncc3)ccc2s1`, the melting point lay in the range of 236 to 238 °C.

With `Cc1nc2cc(NC(=O)c3cc4cc(F)cnc4n3Cc3ccncc3)ccc2s1` [Compound 1, N-(2-methylbenzothiazol-5-yl)-5-fluoro-1-[(4-pyridyl)methyl]-1H-pyrrolo[2,3-b]pyridine-2-carboxamide], the inhibition at 0.01 µM on TRPV1 receptor amounted to 50%.
